Results as given in PubChem BioAssay (NCI).
Values joined by “and” are separate entries in the source; they are usually repeats but may differ in a detail not shown here. Equal values may be shown once.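 Method: 48-hour compound exposure of cells in 96-well plates, five concentrations, linear interpolation of endpoints. GI50: concentration for 50% inhibition of growth. The concentration for full growth arrest is given as TGI.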

What was measured:
Test in all cases: DTP human tumour cell line panel, 48 h; in the data active = GI50 below about 0.43 µM; inactive = the rest
T-47D breast = test system: T-47D breast
IGROV1 ovarian = test system: IGROV1 ovarian
U251 CNS = test system: U251 CNS
MALME-3M melanoma = test system: MALME-3M melanoma
SF-268 CNS = test system: SF-268 CNS
SN12C renal = test system: SN12C renal
TK-10 renal = test system: TK-10 renal
UO-31 renal = test system: UO-31 renal
MDA-MB-435 = test system: MDA-MB-435
RPMI-8226 leukemia = test system: RPMI-8226 leukemia
HCT-15 colon = test system: HCT-15 colon
SF-539 CNS = test system: SF-539 CNS
BT-549 breast = test system: BT-549 breast
SK-MEL-2 melanoma = test system: SK-MEL-2 melanoma
MDA-MB-231 breast = test system: MDA-MB-231 breast
DU-145 prostate = test system: DU-145 prostate
NCI/ADR-RES ovarian = test system: NCI/ADR-RES ovarian
SW-620 colon = test system: SW-620 colon
HS 578T breast = test system: HS 578T breast
HOP-92 NSCLC = test system: HOP-92 NSCLC
HT29 colon = test system: HT29 colon
LOX IMVI melanoma = test system: LOX IMVI melanoma
NCI-H522 lung = test system: NCI-H522 lung
MCF7 breast = test system: MCF7 breast
EKVX NSCLC = test system: EKVX NSCLC
786-0 renal = test system: 786-0 renal
A498 renal = test system: A498 renal
OVCAR-4 ovarian = test system: OVCAR-4 ovarian
NCI-H226 lung = test system: NCI-H226 lung
HOP-62 NSCLC = test system: HOP-62 NSCLC
UACC-62 melanoma = test system: UACC-62 melanoma
RXF 393 renal = test system: RXF 393 renal
MOLT-4 leukemia = test system: MOLT-4 leukemia
KM12 colon = test system: KM12 colon
SK-MEL-5 melanoma = test system: SK-MEL-5 melanoma
SNB-19 CNS = test system: SNB-19 CNS
A549 NSCLC = test system: A549 NSCLC
CCRF-CEM leukemia = test system: CCRF-CEM leukemia
HCT-116 colon = test system: HCT-116 colon
SK-OV-3 ovarian = test system: SK-OV-3 ovarian
CAKI-1 renal = test system: CAKI-1 renal
NCI-H460 lung = test system: NCI-H460 lung
SK-MEL-28 melanoma = test system: SK-MEL-28 melanoma
UACC-257 melanoma = test system: UACC-257 melanoma
NCI-H23 lung = test system: NCI-H23 lung
ACHN renal = test system: ACHN renal
OVCAR-8 ovarian = test system: OVCAR-8 ovarian
OVCAR-3 ovarian = test system: OVCAR-3 ovarian
SF-295 CNS = test system: SF-295 CNS
SNB-75 CNS = test system: SNB-75 CNS
K-562 leukemia = test system: K-562 leukemia
M14 melanoma = test system: M14 melanoma
HL-60(TB) leukemia = test system: HL-60(TB) leukemia
OVCAR-5 ovarian = test system: OVCAR-5 ovarian
COLO 205 colon = test system: COLO 205 colon
HCC-2998 colon = test system: HCC-2998 colon

CN(C)c1nc2ccccc2c2c1c1c(n2Cc2ccccc2)-c2ccccc2C1=O
75.9 µM: TGI (HS 578T breast)
> 100 µM: TGI (T-47D breast) | TGI (IGROV1 ovarian) | TGI (U251 CNS) | TGI (MALME-3M melanoma) | TGI (SF-268 CNS) | TGI (SN12C renal) | TGI (TK-10 renal) | TGI (UO-31 renal) | TGI (MDA-MB-435) | TGI (RPMI-8226 leukemia) | TGI (HCT-15 colon) | TGI (SF-539 CNS) | TGI (BT-549 breast) | TGI (SK-MEL-2 melanoma) | TGI (MDA-MB-231 breast) | TGI (DU-145 prostate) | TGI (NCI/ADR-RES ovarian) | TGI (SW-620 colon) | TGI (HOP-92 NSCLC) | TGI (HT29 colon) | TGI (LOX IMVI melanoma) | TGI (NCI-H522 lung) | TGI (MCF7 breast) | TGI (EKVX NSCLC) | TGI (786-0 renal) | TGI (A498 renal) | TGI (OVCAR-4 ovarian) | TGI (NCI-H226 lung) | TGI (HOP-62 NSCLC) | TGI (UACC-62 melanoma) | TGI (RXF 393 renal) | TGI (MOLT-4 leukemia) | TGI (KM12 colon) | TGI (SK-MEL-5 melanoma) | TGI (SNB-19 CNS) | TGI (A549 NSCLC) | TGI (CCRF-CEM leukemia) | TGI (HCT-116 colon) | TGI (SK-OV-3 ovarian) | TGI (CAKI-1 renal) | TGI (NCI-H460 lung) | TGI (SK-MEL-28 melanoma) | TGI (UACC-257 melanoma) | TGI (NCI-H23 lung) | TGI (ACHN renal) | TGI (OVCAR-8 ovarian) | TGI (OVCAR-3 ovarian) | TGI (SF-295 CNS) | TGI (SNB-75 CNS) | TGI (K-562 leukemia) | TGI (M14 melanoma) | TGI (HL-60(TB) leukemia) | TGI (OVCAR-5 ovarian) | TGI (COLO 205 colon)
inactive: GI50 (T-47D breast) 55.6 µM | GI50 (IGROV1 ovarian) 27.2 µM | GI50 (U251 CNS) > 100 µM | GI50 (MALME-3M melanoma) > 100 µM | GI50 (SF-268 CNS) > 100 µM | GI50 (SN12C renal) > 100 µM | GI50 (TK-10 renal) > 100 µM | GI50 (UO-31 renal) > 100 µM | GI50 (MDA-MB-435) > 100 µM | GI50 (RPMI-8226 leukemia) > 100 µM | GI50 (HCT-15 colon) > 100 µM | GI50 (SF-539 CNS) > 100 µM | GI50 (BT-549 breast) > 100 µM | GI50 (SK-MEL-2 melanoma) > 100 µM | GI50 (MDA-MB-231 breast) > 100 µM | GI50 (DU-145 prostate) > 100 µM | GI50 (NCI/ADR-RES ovarian) > 100 µM | GI50 (SW-620 colon) > 100 µM | GI50 (HOP-92 NSCLC) 13 µM | GI50 (HT29 colon) 12.2 µM | GI50 (LOX IMVI melanoma) > 100 µM | GI50 (NCI-H522 lung) > 100 µM | GI50 (MCF7 breast) 71.4 µM | GI50 (EKVX NSCLC) > 100 µM | GI50 (786-0 renal) > 100 µM | GI50 (A498 renal) > 100 µM | GI50 (OVCAR-4 ovarian) 31.3 µM | GI50 (NCI-H226 lung) > 100 µM | GI50 (HOP-62 NSCLC) > 100 µM | GI50 (UACC-62 melanoma) > 100 µM | GI50 (RXF 393 renal) > 100 µM | GI50 (MOLT-4 leukemia) 25.5 µM | GI50 (KM12 colon) > 100 µM | GI50 (SK-MEL-5 melanoma) 39.1 µM | GI50 (SNB-19 CNS) > 100 µM | GI50 (A549 NSCLC) > 100 µM | GI50 (CCRF-CEM leukemia) 62.7 µM | GI50 (HCT-116 colon) 8.79 µM | GI50 (SK-OV-3 ovarian) > 100 µM | GI50 (CAKI-1 renal) > 100 µM | GI50 (NCI-H460 lung) > 100 µM | GI50 (SK-MEL-28 melanoma) > 100 µM | GI50 (UACC-257 melanoma) > 100 µM | GI50 (NCI-H23 lung) > 100 µM | GI50 (ACHN renal) > 100 µM | GI50 (OVCAR-8 ovarian) > 100 µM | GI50 (OVCAR-3 ovarian) > 100 µM | GI50 (SF-295 CNS) > 100 µM | GI50 (SNB-75 CNS) 54.2 µM | GI50 (K-562 leukemia) > 100 µM | GI50 (M14 melanoma) > 100 µM | GI50 (HL-60(TB) leukemia) 91.6 µM | GI50 (OVCAR-5 ovarian) > 100 µM | GI50 (COLO 205 colon) > 100 µM

COc1cc2cc(C(=O)N3CC(COS(C)(=O)=O)c4ccc(O)cc43)[nH]c2c(OC)c1OC (stereo not given)
0.00645 µM: TGI (EKVX NSCLC)
0.0106 µM: TGI (786-0 renal)
0.149 µM: TGI (OVCAR-8 ovarian)
0.00404 µM: TGI (UACC-257 melanoma)
0.000872 µM: TGI (HS 578T breast)
0.00198 µM: TGI (HOP-62 NSCLC)
0.0428 µM: TGI (OVCAR-5 ovarian)
0.524 µM: TGI (NCI/ADR-RES ovarian)
0.0402 µM: TGI (MCF7 breast)
0.00286 µM: TGI (NCI-H23 lung)
0.000328 µM: TGI (MDA-MB-231 breast)
0.0924 µM: TGI (MOLT-4 leukemia)
0.0378 µM: TGI (IGROV1 ovarian)
active: GI50 (CAKI-1 renal) < 0.0001 µM
0.0416 µM: TGI (T-47D breast)
0.0165 µM: TGI (SN12C renal)
0.111 µM and 0.0118 µM: TGI (SW-620 colon)
0.000858 µM: TGI (HCT-15 colon)
0.0033 µM: TGI (KM12 colon)
0.000616 µM: TGI (OVCAR-3 ovarian)
0.000845 µM: TGI (DU-145 prostate)
0.012 µM: TGI (SNB-19 CNS)
> 100 µM: TGI (CCRF-CEM leukemia)
14 µM: TGI (TK-10 renal)
0.138 µM: TGI (HCT-116 colon)
0.000531 µM: TGI (NCI-H226 lung)
0.00194 µM: TGI (COLO 205 colon)
0.137 µM: TGI (U251 CNS)
0.00149 µM: TGI (SNB-75 CNS)
0.638 µM: TGI (HOP-92 NSCLC)
< 0.0001 µM: TGI (HCC-2998 colon) | TGI (UO-31 renal) | TGI (SF-539 CNS) | TGI (SK-MEL-2 melanoma) | TGI (NCI-H522 lung) | TGI (RXF 393 renal) | TGI (SK-MEL-5 melanoma) | TGI (CAKI-1 renal) | TGI (ACHN renal) | TGI (SF-295 CNS)
0.000212 µM: TGI (MDA-MB-435)
